Measurements from ChEMBL document CHEMBL4823249, “Discovery of a Pyrimidinedione Derivative as a Potent and Orally Bioavailable Axl Inhibitor” (J Med Chem, 2021).
The source made the active and inactive calls. No cut-off for these calls is given here.

Columns and labels:
[1] = Half life in ICR mouse at 1 mg/kg, iv measured upto 24 hrs by LC-MS analysis; format: ADME, organism-based; settings: in vivo
[2] = target: ALK tyrosine kinase receptor (Homo sapiens, UniProt Q9UM73); assay: Inhibition of human ALK (1058 to end residues) using KKKSPGEYVNIEFG as substrate incubated for 40 mins in presence of [gamma-33ATP] by scintillation counting based radiometry assay
[3] = target: Platelet-derived growth factor receptor alpha (Homo sapiens, UniProt P16234); assay: Inhibition of human PDGFRalpha (550 to end residues) using poly(Glu, Tyr) 4:1 as substrate measured after 40 mins in presence of [gamma33P]ATP by scintillation counting based radiometry assay
[4] = target: Receptor-type tyrosine-protein kinase FLT3 (Homo sapiens, UniProt P36888); assay: Inhibition of recombinant human FLT3 (564 to end residues) using EAIYAAPFAKKK as substrate incubated for 40 mins in presence of [gamma-33ATP] by scintillation counting based radiometry assay
[5] = target: Tyrosine-protein kinase ABL1 (Homo sapiens, UniProt P00519); assay: Inhibition of human recombinant ABL (27 to end residues) using EAIYAAPFAKKK as substrate incubated for 40 mins in presence of [gamma33P-ATP] by radiometric scintillation counting analysis
Focal adhesion kinase 1 = Focal adhesion kinase 1 (Homo sapiens, UniProt Q05397); assay: Inhibition of human recombinant FAK1 (411 to 686 residues) using EEEEYEEEEEEYY as substrate incubated for 40 mins in presence of [gamma-33ATP] by radiometric scintillation counting analysis
[6] = target: Serine/threonine-protein kinase mTOR (Homo sapiens, UniProt P42345); assay: Inhibition of full length recombinant human mTOR incubated for 40 mins in presence of [gamma-33ATP] by scintillation counting based radiometry assay
[7] = target: Tyrosine-protein kinase SYK (Homo sapiens, UniProt P43405); assay: Inhibition of recombinant human full length SYK using poly(Glu, Tyr) 4:1 as substrate incubated for 40 mins in presence of [gamma33P]ATP by scintillation counting based radiometry assay
[8] = target: Proto-oncogene tyrosine-protein kinase receptor Ret (Homo sapiens, UniProt P07949); assay: Inhibition of recombinant human Ret (658 to end residues) using KKKSPGEYVNIEFG as substrate incubated for 40 mins in presence of [gamma33P]ATP by scintillation counting based radiometry assay
[9] = target: T1, Tyrosine-protein kinase receptor UFO (Mus musculus) (UniProt Q00993); assay: Inhibition of AXL in mouse BaF3/TEL-AXL cells assessed as reduction in phosphorylation of AKT at 1 to 15 nM after 2 hrs by Western blotting analysis; format: cell-based; settings: dose 1-15 nM
T1 sequence (whole entry): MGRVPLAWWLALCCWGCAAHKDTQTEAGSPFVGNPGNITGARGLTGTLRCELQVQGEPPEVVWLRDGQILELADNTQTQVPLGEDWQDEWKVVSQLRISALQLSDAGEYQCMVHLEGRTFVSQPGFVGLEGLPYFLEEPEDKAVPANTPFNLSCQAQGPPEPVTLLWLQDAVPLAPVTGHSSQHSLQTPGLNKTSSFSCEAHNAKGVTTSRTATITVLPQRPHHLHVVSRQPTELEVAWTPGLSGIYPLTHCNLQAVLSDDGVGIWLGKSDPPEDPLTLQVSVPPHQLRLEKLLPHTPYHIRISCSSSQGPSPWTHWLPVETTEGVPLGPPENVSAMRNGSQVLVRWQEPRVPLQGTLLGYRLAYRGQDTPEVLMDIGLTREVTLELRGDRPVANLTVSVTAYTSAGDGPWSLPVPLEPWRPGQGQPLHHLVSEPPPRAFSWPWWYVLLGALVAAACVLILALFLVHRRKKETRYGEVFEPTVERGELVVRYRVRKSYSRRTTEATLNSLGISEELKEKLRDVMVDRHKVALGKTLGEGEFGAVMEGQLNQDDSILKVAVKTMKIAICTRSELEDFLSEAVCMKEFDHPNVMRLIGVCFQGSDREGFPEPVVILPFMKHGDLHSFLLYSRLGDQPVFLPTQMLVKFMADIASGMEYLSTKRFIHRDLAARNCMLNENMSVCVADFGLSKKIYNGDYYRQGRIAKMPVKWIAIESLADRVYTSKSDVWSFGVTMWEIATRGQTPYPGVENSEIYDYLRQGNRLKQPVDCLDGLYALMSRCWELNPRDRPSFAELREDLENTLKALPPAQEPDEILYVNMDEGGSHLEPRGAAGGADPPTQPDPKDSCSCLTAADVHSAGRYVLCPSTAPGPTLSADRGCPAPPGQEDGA

[10] = target: Hepatocyte growth factor receptor (Homo sapiens, UniProt P08581); assay: Inhibition of MET signaling in human EBC1 cells assessed as reduction in phosphorylation of ERK after 2 hrs by Western blotting analysis; format: cell-based; settings: EBC-1, dose 10-100 nM
BT-474 = assay: Antiproliferative activity against human BT-474 cells incubated for 72 hrs by SRB or CCK8 assay; format: functional, cell-based; settings: BT-474, 72 h
HCC78 = assay: Antiproliferative activity against human HCC78 cells incubated for 72 hrs by SRB or CCK8 assay; format: functional, cell-based; settings: HCC78, 72 h
MDA-MB-231 = assay: Antiproliferative activity against human MDA-MB-231 cells incubated for 72 hrs by SRB or CCK8 assay; format: functional, cell-based; settings: MDA-MB-231, 72 h
NCI-H1975 = assay: Antiproliferative activity against human NCI-H1975 cells incubated for 72 hrs by SRB or CCK8 assay; format: functional, cell-based; settings: NCI-H1975, 72 h
MM1.S = assay: Antiproliferative activity against human MM1.S cells incubated for 72 hrs by SRB or CCK8 assay; format: functional, cell-based
NCI-H1299 = assay: Inhibition of Gas6-stimulated cell migration in human NCI-H1299 cells at […] after 24 hrs by crystal violet staining based microscopic analysis; format: functional; settings: dose lower 5.0 µM
SNU-449 = assay: Antiproliferative activity against human SNU-449 cells at 5 to 125 uM incubated for 72 hrs by SRB or CCK8 assay; format: functional, cell-based; settings: dose 5-125 µM
BaF3 [11] = assay: Antitumor activity against mouse BaF3/TEL-AXL cells xenografted in BALB/c nude mouse assessed as tumor growth inhibition at 1 mg/kg, po administered once daily for 14 days by caliper method; format: functional; settings: 336 h, time 14 day, read-out: TGI
BaF3 [12] = assay: Antitumor activity against mouse BaF3/TEL-AXL cells xenografted in BALB/c nude mouse assessed as tumor growth inhibition at 25 mg/kg, po administered once daily for 14 days by caliper method; format: functional; settings: 336 h, time 14 day, read-out: TGI
U-87 MG [13] = assay: Antitumor activity against human U-87MG cells xenografted in BALB/c nude mouse assessed as tumor growth inhibition at 25 mg/kg, po administered once daily for 14 days by caliper method; format: functional, U-87MG ATCC; settings: 336 h, time 14 day, read-out: TGI
U-87 MG [14] = assay: Antitumor activity against human U-87MG cells xenografted in po dosed BALB/c nude mouse assessed as tumor growth inhibition administered once daily for 14 days by caliper method; format: functional, organism-based; settings: U-87MG ATCC, dose 5-100 mg/kg, time 14.0 day

Chain of Focal adhesion kinase 1 (Q05397 whole entry, the tested form may be a part): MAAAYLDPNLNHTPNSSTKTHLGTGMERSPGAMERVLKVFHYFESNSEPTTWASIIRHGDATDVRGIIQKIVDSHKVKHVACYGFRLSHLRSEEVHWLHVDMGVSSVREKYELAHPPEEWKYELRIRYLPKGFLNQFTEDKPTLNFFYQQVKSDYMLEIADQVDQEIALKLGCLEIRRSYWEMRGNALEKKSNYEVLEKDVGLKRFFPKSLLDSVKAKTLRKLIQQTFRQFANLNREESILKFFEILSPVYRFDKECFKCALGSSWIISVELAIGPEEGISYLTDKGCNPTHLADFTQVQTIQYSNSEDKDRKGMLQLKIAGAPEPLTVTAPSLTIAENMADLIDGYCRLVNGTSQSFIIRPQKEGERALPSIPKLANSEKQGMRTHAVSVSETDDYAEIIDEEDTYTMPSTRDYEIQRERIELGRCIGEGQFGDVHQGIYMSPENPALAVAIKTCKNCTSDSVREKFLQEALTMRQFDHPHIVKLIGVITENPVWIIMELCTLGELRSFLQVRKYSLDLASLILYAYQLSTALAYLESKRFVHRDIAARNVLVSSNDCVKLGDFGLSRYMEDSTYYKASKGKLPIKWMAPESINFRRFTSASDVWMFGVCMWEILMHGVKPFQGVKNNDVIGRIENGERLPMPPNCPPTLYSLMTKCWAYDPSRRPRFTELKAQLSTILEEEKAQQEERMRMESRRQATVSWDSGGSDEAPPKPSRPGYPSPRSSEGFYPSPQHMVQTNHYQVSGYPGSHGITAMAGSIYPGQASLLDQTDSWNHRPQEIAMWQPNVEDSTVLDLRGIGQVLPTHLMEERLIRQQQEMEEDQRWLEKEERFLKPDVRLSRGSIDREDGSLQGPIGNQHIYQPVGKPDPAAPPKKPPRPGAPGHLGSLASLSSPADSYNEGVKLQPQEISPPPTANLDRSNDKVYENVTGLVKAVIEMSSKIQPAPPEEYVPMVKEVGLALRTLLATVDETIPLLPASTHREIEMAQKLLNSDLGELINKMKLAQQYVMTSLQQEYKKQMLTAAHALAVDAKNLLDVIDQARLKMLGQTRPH
Chain of Proto-oncogene tyrosine-protein kinase receptor Ret (P07949 whole entry): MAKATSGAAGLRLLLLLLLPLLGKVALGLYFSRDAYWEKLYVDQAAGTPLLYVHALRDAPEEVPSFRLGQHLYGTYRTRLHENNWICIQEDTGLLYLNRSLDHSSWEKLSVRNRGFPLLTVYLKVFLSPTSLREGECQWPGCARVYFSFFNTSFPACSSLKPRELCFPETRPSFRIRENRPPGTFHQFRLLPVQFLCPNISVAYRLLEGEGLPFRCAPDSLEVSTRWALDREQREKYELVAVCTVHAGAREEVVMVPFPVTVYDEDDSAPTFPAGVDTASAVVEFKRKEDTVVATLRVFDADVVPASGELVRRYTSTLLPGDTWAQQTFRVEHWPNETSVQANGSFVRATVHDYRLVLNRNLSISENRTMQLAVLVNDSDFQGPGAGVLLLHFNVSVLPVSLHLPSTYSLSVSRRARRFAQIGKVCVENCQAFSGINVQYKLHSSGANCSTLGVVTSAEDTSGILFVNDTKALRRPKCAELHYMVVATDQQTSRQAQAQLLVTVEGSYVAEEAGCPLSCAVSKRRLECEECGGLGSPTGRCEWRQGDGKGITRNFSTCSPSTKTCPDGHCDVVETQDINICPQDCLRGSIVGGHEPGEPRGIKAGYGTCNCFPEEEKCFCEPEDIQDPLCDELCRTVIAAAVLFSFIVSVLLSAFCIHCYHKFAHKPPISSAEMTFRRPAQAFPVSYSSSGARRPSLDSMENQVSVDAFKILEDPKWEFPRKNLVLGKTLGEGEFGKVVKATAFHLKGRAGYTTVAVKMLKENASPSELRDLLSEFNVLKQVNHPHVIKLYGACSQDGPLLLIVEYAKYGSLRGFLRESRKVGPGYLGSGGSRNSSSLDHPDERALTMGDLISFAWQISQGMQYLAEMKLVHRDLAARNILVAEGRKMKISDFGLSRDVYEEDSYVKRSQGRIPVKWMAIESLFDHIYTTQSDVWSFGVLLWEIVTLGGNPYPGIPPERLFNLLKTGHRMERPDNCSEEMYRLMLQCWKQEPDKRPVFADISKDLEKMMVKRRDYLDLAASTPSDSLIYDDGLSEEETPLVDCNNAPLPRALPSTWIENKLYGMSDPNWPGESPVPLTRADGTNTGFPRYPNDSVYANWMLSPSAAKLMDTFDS
Chain of Tyrosine-protein kinase ABL1 (P00519 whole entry, the tested form may be a part): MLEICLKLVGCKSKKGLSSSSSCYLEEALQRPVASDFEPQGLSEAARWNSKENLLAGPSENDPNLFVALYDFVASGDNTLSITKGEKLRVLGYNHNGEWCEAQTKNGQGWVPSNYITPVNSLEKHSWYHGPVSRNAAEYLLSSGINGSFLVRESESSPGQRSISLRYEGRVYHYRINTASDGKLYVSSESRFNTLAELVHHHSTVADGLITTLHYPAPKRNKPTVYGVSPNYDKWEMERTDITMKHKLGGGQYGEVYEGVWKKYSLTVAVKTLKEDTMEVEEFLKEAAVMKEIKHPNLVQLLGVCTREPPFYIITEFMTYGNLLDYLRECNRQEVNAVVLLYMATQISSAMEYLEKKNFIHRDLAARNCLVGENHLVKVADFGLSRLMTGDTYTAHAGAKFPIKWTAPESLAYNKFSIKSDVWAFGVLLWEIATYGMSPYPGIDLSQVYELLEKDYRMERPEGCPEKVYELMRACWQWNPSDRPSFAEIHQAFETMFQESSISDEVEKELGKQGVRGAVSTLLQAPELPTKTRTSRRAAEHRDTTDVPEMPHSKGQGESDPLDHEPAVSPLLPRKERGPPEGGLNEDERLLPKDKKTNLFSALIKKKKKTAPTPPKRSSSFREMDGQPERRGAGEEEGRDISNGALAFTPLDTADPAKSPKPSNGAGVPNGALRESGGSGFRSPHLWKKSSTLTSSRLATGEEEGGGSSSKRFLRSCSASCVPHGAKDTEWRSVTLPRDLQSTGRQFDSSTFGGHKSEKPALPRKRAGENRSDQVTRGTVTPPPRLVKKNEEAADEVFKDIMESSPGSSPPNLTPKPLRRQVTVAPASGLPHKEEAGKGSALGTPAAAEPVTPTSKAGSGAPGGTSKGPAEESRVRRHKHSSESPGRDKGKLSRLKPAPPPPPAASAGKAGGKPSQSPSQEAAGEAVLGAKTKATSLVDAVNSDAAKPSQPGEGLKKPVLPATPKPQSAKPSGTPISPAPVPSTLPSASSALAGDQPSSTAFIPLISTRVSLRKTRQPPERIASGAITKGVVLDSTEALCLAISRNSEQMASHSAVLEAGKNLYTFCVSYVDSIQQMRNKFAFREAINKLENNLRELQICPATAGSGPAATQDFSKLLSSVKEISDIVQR
Chain of Receptor-type tyrosine-protein kinase FLT3 (P36888 whole entry): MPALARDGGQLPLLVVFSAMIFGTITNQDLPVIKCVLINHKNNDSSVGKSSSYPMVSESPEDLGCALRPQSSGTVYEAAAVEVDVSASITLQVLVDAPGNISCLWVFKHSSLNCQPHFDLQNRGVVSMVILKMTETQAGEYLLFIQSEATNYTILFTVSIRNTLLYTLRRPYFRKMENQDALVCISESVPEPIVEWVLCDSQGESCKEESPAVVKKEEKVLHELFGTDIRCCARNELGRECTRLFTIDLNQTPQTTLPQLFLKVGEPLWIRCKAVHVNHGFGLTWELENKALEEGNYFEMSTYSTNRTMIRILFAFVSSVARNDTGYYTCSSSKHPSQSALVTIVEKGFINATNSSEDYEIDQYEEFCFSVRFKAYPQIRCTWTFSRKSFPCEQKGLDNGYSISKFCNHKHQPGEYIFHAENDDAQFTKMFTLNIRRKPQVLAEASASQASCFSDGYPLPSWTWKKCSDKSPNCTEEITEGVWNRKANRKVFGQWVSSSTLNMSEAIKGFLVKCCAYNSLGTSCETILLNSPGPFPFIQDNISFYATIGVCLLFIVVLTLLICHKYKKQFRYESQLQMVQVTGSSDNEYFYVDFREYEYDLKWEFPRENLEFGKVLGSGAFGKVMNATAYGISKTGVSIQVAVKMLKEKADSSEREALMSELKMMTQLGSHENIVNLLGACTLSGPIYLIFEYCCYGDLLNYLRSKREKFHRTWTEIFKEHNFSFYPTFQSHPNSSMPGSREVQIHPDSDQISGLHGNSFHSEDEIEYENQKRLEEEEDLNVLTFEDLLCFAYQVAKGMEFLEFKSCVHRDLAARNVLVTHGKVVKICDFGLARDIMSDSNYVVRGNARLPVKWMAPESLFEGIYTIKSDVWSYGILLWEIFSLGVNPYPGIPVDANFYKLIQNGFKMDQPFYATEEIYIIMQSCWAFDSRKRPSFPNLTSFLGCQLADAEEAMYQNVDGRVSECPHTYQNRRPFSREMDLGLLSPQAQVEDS

For `CC(C)n1cc(C(=O)Nc2ccc(Oc3ccnc(NC(=O)C4CC4)c3)c(F)c2)c(=O)n(-c2ccc(F)cc2)c1=O`, the half-life [1] was 5.57 h, the IC50 [2] was > 1000 nM and the IC50 [3] was > 1000 nM. For the same compound, the IC50 [4] was > 1000 nM, the IC50 [5] was > 1000 nM and the IC50 (Focal adhesion kinase 1) was > 1000 nM. The IC50 [6] was > 1000 nM, the IC50 [7] was > 100 nM and the IC50 [8] was > 1000 nM. For the same compound, the inhibition [9] was “Active”, the inhibition [10] was “Dose-Dependent Effect” and the IC50 (BT-474) was > 10000 nM. For the same compound, the IC50 (HCC78) was > 10000 nM, the IC50 (MDA-MB-231) was > 10000 nM and the IC50 (NCI-H1975) was > 10000 nM. For the same compound, the IC50 (MM1.S) was > 10000 nM, the inhibition (NCI-H1299) was “Active” and the Activity (SNU-449) was “inactive”. The inhibition in vivo at 1 mg/kg (BaF3 [11]) was 90.9%, the inhibition in vivo at 25 mg/kg (BaF3 [12]) was 106% and the inhibition in vivo at 25 mg/kg (U-87 MG [13]) was 89.8%. The Activity (U-87 MG [14]) was “Dose-Dependent Effect”.
